The source of these data is article PMC9909315, “SY-707, an ALK/FAK/IGF1R inhibitor, suppresses growth and metastasis of breast cancer cells” (Acta Biochimica et Biophysica Sinica, 2022).

Like-named read-outs stand apart in the source and are kept apart here.

A short description of one series: Pharmacokinetic study. It counts as in vivo, SD rats. The settings on record: SD, serum, Rat, 5 mg/kg PO; for CL/F: read-out: Cl_F_obs (converted); for MRT inf: read-out: MRT INF_obs. On the procedure: […] […] The serum samples were collected by centrifugation and stored at –80 °C. Compound concentrations in the sample serums were further analyzed with an API-4000 LC-MS/MS system (Applied Biosystem, Foster City, USA), and pharmacokinetic parameters ( T 1/2, T max, C max, AUC 0-INF, Cl_F_obs, MRT INF_obs, and F(%)) were calcuated using the WinNonlin software (version 6.2; WinNonlin Professional, Pharsight, USA).

In series [1] the test system is phosphorylation of FAK at Tyr397 in T47D tumor tissue. The series is described as follows: Pharmacokinetics/pharmacodynamics study in T47D xenograft model. It counts as in vivo, nude mice. The protocol:
Figure5 Anti-tumor activities of SY-707 in breast cancer xenograftsXenograft tumors were established by inoculating T47D (A, B, C) cells or 4T1 (D) cells into the nude mice. Oral administration of SY-707 alone or combined with paclitaxel was initiated when tumors reached an average of approximately 150–300 mm3 in volume and continued through the experiment. Tumor volume was measured on the indicated days with the mean tumor volume±SD indicated for each group (10 mice/group). Each treatment group was compared to vehicle group with t-test. *P<0.05, **P<0.01. (B) The tumor tissues were harvested at 2 h after the last dosage of SY-707, compound levels in tumor tissues or plasma and the phosphorylation levels of FAK were analyzed.
To explore the relationship between the in vivo anti-tumor growth activities and the inhibition on FAK signaling, pharmacokinetics/pharmacodynamics studies were performed in T47D xenograft model.

For the compound `COc1cc(N2CCC(N3CCN(C)CC3)CC2)ccc1Nc1nc2c(c(Nc3ccccc3S(=O)(=O)NC(C)C)n1)CCN2` [SY-707, N-isopropyl-2-((2-((2-methoxy-4-(4-(4-methylpiperazin-1-yl)piperidin-1-yl)phenyl)amino)-6,7-dihydro-5H-pyrrolo[2,3-d]pyrimidin-4-yl)amino)benzenesulfonamide], in “Pharmacokinetic study” (Female), the area under the curve AUC(0-inf) was 8590 ng·h/mL, the Cmax stood at 639 ng/mL, the Tmax came to 4.33 h and the bioavailability is 33.2%. Moreover, in the series “Pharmacokinetic study” (Female), the half-life is 11.2 h, the CL/F is 9.77 mL/min/kg and the MRT inf was found to be 13.8 h. Moreover, in “Pharmacokinetic study” (Male), the AUC(0-inf) was 13300 ng·h/mL, the Cmax stood at 909 ng/mL, the time to peak (Tmax) came to 3.33 h and the bioavailability was determined as 38.3%. In the series “Pharmacokinetic study” (Male), the half-life is 13 h, the CL/F is 6.3 mL/min/kg and the MRT inf was found to be 15.5 h. In addition, in the series “Pharmacokinetic study” (both sexes, All), the total exposure AUC(0-inf) came to 11000 ng·h/mL, the concentration peaked (Cmax) at 774 ng/mL, the time to peak (Tmax) amounted to 3.83 h and the bioavailability came out at 36.2%. Besides, in “Pharmacokinetic study” (both sexes, All), the half-life is 12.1 h, the CL/F was 8.03 mL/min/kg and the MRT inf turned out to be 14.7 h. Also, the “concentration in tumor samples compared to plasma” value in series [1] (2 h after last dosage) was “higher concentrations of SY-707 were also detected in tumor samples”. For the same compound, the “phosphorylation level of FAK at Tyr397 in tumor” value in series [1] (tumor harvested 2 h after last dosage, vs control group) was “significantly decreased”.
